The source made the active and inactive calls. The calls are words filed in the database; no cut-off is given here.
What was measured:
[1] = Cytotoxicity against human HuH7 cells assessed as reduction in cell viability incubated for 3 days by MTT assay; format: cell-based, Huh-7
[2] = Therapeutic index, ratio of CC50 for human HuH7 cells to EC50 for antiviral activity against HCV infected in human HuH7-luc/neo cells assessed as inhibition of DNA replication i
[3] = test system: Hepatitis C virus; experiment: Antiviral activity against HCV infected in human HuH7-luc/neo cells assessed as inhibition of DNA replication incubated for 3 days by luciferase reporter gene assay; format: functional, organism-based, Hepacivirus hominis; conditions: 72 h
[4] = biological target: T1, Protein deacetylase HDAC6 (Homo sapiens, UniProt Q9UBN7); experiment: Inhibition of human recombinant HDAC 6 by HDAC-Glo luminescent assay
T1 sequence (Q9UBN7 whole entry): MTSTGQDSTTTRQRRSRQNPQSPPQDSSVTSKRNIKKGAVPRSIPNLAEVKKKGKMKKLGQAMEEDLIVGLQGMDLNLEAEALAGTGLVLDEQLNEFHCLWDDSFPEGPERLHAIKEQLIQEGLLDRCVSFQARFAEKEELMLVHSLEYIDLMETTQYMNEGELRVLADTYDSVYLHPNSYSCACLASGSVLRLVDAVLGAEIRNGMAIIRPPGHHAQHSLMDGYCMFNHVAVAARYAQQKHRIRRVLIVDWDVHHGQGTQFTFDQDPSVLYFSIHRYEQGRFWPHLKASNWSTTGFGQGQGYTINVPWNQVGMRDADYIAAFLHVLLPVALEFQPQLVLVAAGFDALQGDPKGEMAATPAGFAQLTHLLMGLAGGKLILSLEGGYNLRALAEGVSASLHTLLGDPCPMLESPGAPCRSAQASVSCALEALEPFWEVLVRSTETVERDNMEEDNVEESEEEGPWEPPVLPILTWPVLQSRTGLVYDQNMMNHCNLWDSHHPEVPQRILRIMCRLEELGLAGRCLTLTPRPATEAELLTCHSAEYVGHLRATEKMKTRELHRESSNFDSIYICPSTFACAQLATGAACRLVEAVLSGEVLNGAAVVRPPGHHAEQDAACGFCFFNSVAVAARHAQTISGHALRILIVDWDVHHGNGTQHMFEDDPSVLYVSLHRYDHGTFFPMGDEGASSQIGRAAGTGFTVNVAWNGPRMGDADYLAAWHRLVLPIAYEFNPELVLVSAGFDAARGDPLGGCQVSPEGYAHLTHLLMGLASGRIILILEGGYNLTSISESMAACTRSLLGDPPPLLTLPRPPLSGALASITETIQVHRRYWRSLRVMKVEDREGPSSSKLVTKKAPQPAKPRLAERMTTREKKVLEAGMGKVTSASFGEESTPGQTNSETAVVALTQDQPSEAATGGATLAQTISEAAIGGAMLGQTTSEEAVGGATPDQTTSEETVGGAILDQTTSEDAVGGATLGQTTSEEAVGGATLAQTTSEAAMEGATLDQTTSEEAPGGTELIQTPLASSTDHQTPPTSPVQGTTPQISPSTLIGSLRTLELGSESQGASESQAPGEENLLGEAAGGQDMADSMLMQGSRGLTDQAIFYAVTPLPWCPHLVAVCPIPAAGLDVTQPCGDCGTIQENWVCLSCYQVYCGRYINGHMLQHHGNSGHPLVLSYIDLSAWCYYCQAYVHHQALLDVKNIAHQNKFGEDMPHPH

[5] = biological target: Histone deacetylase 3 (Homo sapiens) (UniProt O15379); experiment: Inhibition of HDAC3 in human Huh7-luc/neo cells assessed as increase in histone H3 K9 acetylation incubated for 24 hrs by Western blot analysis
Histone deacetylase 3 (Homo sapiens), sequence (O15379 whole entry): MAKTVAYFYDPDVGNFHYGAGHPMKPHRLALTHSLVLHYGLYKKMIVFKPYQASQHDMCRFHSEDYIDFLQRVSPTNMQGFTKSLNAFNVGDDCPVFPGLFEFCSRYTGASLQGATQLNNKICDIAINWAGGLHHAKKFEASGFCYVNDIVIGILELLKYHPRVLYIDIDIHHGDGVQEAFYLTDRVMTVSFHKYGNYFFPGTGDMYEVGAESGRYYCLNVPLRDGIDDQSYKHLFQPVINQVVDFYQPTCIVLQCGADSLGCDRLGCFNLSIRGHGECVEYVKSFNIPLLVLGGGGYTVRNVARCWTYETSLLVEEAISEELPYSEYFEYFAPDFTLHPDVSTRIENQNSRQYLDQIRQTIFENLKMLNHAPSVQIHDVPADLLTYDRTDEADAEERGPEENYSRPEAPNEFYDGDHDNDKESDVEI

[6] = HuH7 cells (CC50) and HCV-infected HuH7-luc/neo cells (EC50)

Structure (SMILES): CCCNNC(=O)c1ccc(-c2ccccc2)cc1
- CC50 at 72 h [1]: 5.9 µM
- selectivity ratio [2, 6]: 3.9
- EC50 [3]: 1.5 µM

Structure (SMILES): CCCNNC(=O)C1c2ccccc2Oc2ccccc21
- CC50 at 72 h [1]: > 300 µM

Structure (SMILES): CCCNNC(=O)CCCCCCC(=O)Nc1ccccc1
- CC50 at 72 h [1]: 7 µM
- selectivity ratio [2, 6]: 5.4
- EC50 [3]: 1.3 µM

Structure (SMILES): N[C@H](Cc1ccc(Cl)cc1Cl)C(=O)N1Cc2ccccc2C1
- IC50 [4]: 30 µM

Structure (SMILES): CCNNC(=O)c1ccccc1
- CC50 at 72 h [1]: > 1000 µM

Structure (SMILES): O=C(/C=C/c1ccccc1)NO
- CC50 at 72 h [1]: 20 µM
- selectivity ratio [2]: 10
- EC50 [3]: 2 µM

Structure (SMILES): O=C(NO)C1c2ccccc2Oc2ccccc21
- CC50 at 72 h [1]: 300 µM
- selectivity ratio [2, 6]: 400
- EC50 [3]: 0.75 µM

Structure (SMILES): O=C(CCCCCCC(=O)Nc1ccccc1)NO [VORINOSTAT]
- CC50 at 72 h [1]: 0.64 µM

Structure (SMILES): CCCNNC(=O)c1ccc(Cn2c(C)nc3ccccc32)cc1
- CC50 at 72 h [1]: 9.9 µM
- selectivity ratio [2, 6]: 400
- EC50 [3]: 0.025 µM

Structure (SMILES): CCCNNC(=O)/C=C/c1cccc(S(=O)(=O)Nc2ccccc2)c1
- CC50 at 72 h [1]: 0.68 µM
- selectivity ratio [2, 6]: 1.2
- EC50 [3]: 0.55 µM

Structure (SMILES): CCCNNC(=O)CCc1ccccc1
- CC50 at 72 h [1]: 96 µM
- selectivity ratio [2, 6]: 25
- EC50 [3]: 3.8 µM

Structure (SMILES): CNNC(=O)c1ccccc1
- CC50 at 72 h [1]: > 1000 µM

Structure (SMILES): CCCNNC(=O)c1ccc(Cn2c3c(c4ccccc42)CN(C)CC3)cc1
- CC50 at 72 h [1]: 5.3 µM
- selectivity ratio [2, 6]: 22
- EC50 [3]: 0.24 µM

Structure (SMILES): CCCNNC(=O)/C=C/c1ccccc1
- CC50 at 72 h [1]: 18 µM
- selectivity ratio [2, 6]: 3.3
- EC50 [3]: 5.4 µM

Structure (SMILES): CCCNNC(=O)c1ccccc1
- CC50 at 72 h [1]: 120 µM
- selectivity ratio [2, 6]: 22
- EC50 [3]: 5.5 µM

Structure (SMILES): CN1CCc2c(c3ccccc3n2Cc2ccc(C(=O)NO)cc2)C1 [TUBASTATIN A]
- EC50 [3]: 0.3 µM

Structure (SMILES): O=C(CCc1ccccc1)NO
- CC50 at 72 h [1]: 110 µM
- selectivity ratio [2, 6]: 21
- EC50 [3]: 5.2 µM

Structure (SMILES): O=C(NO)c1ccc(-c2ccccc2)cc1
- CC50 at 72 h [1]: 30 µM
- selectivity ratio [2, 6]: 75
- EC50 [3]: 0.4 µM

Structure (SMILES): O=C(NCC1(c2nc(-c3ccccc3)cs2)CCOCC1)c1cccc(-c2noc(C(F)(F)F)n2)c1
- CC50 at 72 h [1]: 83 µM
- selectivity ratio [2]: 18
- inhibition [5]: Active
- EC50 [3]: 4.5 µM

Structure (SMILES): Cc1nc2ccccc2n1Cc1ccc(C(=O)NO)cc1
- CC50 at 72 h [1]: 7.9 µM
- selectivity ratio [2, 6]: 29
- EC50 [3]: 0.27 µM

Structure (SMILES): O=C(/C=C/c1cccc(S(=O)(=O)Nc2ccccc2)c1)NO [BELINOSTAT]
- CC50 at 72 h [1]: 0.65 µM
- EC50 [3]: 0.19 µM

Source: ChEMBL document CHEMBL4433239, “Synthesis of N'-propylhydrazide analogs of hydroxamic inhibitors of histone deacetylases (HDACs) and evaluation of their impact on activities of HDACs and replication of hepatitis C virus (HCV)” (Bioorg Med Chem Lett, 2019)
